Entries after “also recorded” stand apart in the source; their conditions may differ.
Key:
[1] = target: T1, NGF (Homo sapiens, UniProt P01138); settings: cell culture models; cited from earlier work
[2] = system: OA; settings: tanezumab 2.5-5 mg combined, N = 2000; cited from earlier work
[3] = system: subjects with chronic low back pain (CLBP); assay: Study 1063, Phase 3 in Japan: efficacy (LBPI, RMDQ) in chronic low back pain; format: in vivo, human
Experimental: Patients received a total of seven SC injections, separated by 8 weeks (tanezumab or
Treatment groups were as follows: 1. […] Placebo for tanezumab SC and celecoxib BID.
The Intent-to-Treat (ITT) analysis set included all patients who were randomized and received at least one dose of SC study medication (either tanezumab or placebo). This analysis set was primary for all efficacy endpoints, which were analyzed according to randomization assignment, and was labeled as the ‘ITT population’.

[4] = system: adult patients with chronic low back pain; assay: Study 1059: adverse events and adjudicated joint safety; format: in vivo, human; settings: for incidence of discontinuations from treatment due to an adverse event / incidence of serious adverse events / overall incidence of adverse events: 56-week treatment period
Text: For subjects who are identified with a possible or probable joint event (i.e., rapidly progressive osteoarthritis, subchondral insufficiency fractures, spontaneous osteonecrosis of the knee (SPONK), primary osteonecrosis or pathological fracture) and subjects undergoing total joint replacement for any reason, all images and other source documentation may be provided to the blinded Adjudication Committee for review and adjudication of the event. The Adjudication Committee's assessment of the event may represent the final classification of the event.
(§1) Patients were also required to have documented history of previous inadequate treatment response to at least 3 different categories of agents commonly used and generally considered effective for the treatment of chronic low back pain. Patients were required to discontinue all medications for the treatment of chronic low back pain during the primary efficacy assessment period (up to Week 16).

[5] = system: adult patients with chronic low back pain; assay: Study 1059, Phase 3: efficacy (LBPI, RMDQ) in chronic low back pain; format: in vivo, human
Experimental: The Low Back Pain Intensity (LBPI) measure is assessed with an 11-point numeric rating scale ranging from 0 (no pain) to 10 (worst possible pain). The LBPI score can be the daily average LBPI score.
The Roland Morris Disability Questionnaire (RMDQ) is an index of how well subjects with low back pain are able to function with regard to daily activities (Roland M, Fairbank. The Roland-Morris Questionnaire and the Oswestry Disability Questionnaire. Spine. 2000; 25 (4)3115-3124). It is a low back pain-specific assessment of physical function with scores ranging from 0 to 24 (lower scores indicate better function).
as §1
Approximately 1800 patients were planned to be randomized initially in a 2:2:2:3 ratio to 1 of 4 following treatment groups:
1. Placebo administered SC at an 8-week interval plus placebo matching tramadol PR up to Week 16. At the Week 16 visit, patients in this group were switched in a blinded fashion in a 1:1 ratio to either tanezumab 5 mg or tanezumab 10 mg administered SC at an 8 week interval plus placebo matching tramadol PR to Week 56;
2. Tanezumab 5 mg SC administered at an 8-week interval plus placebo matching tramadol PR to Week 56;
3. Tanezumab 10 mg SC administered at an 8-week interval plus placebo matching tramadol PR to Week 56;
4. Oral tramadol PR 100-300 mg daily plus placebo administered SC at an 8-week interval to Week 56.
To achieve the initial randomization and intended re-randomization at Week 16 for placebo patients, a randomization ratio 1:1:2:2:3 for placebo→tanezumab 5 mg (at Week 16), placebo→tanezumab 10 mg (at Week 16), tanezumab 5 mg, tanezumab 10 mg, and tramadol PR was used at the beginning of the trial.
Table 2 summarizes the requirements for analgesic medication usage prior to Screening and the requirements for LBPI and Patient's Global Assessment (PGA) of CLBP. The current study enrolled patients who were more refractory to standard of care treatments for CLBP and had higher LBPI scores at Baseline.

[6] = target: T1, NGF; settings: cited from earlier work
[7] = system: subjects with chronic low back pain (CLBP); settings: in vivo
Experimental: This second study (termed “Study 1063) was a randomized, double-blind, active-controlled, multicenter, parallel-group Phase 3 study in Japan to evaluate the safety and efficacy of tanezumab when administered by SC injection for up to 56 weeks in subjects with chronic low back pain (CLBP). […] Patients were also required to be experiencing some benefit from their current stable dose regimen of oral therapy of NSAID (celecoxib 200 mg/day [100 mg BID], loxoprofen 120 to 180 mg/day or meloxicam 5 to 15 mg/day) treatment, but still required additional pain relief at screening. […] Patients with a diagnosis of osteoarthritis of the knee or hip as defined by the American College of Rheumatology combined clinical and radiographic criteria or who had Kellgren Lawrence Grade ≥2 radiographic evidence of hip osteoarthritis or Kellgren Lawrence Grade ≤3 radiographic evidence of knee osteoarthritis were excluded.
Treatment groups were as follows: 1. Tanezumab 5 mg SC and placebo for celecoxib BID; 2. Tanezumab 10 mg SC and placebo for celecoxib BID; 3. Placebo for tanezumab SC and celecoxib BID.
This study was designed with a total (post-randomization) duration of 80 weeks and consisted of three periods: (1) a Screening period (up to a maximum of 37 days), (2) a Double-blind Treatment period (56 weeks), and (3) a Safety Follow-up (24 weeks) Period (FIG. 8). The Screening Period included a Washout Period (lasting 2-32 days) if required, and an Initial Pain Assessment Period (IPAP) (5 days prior to Randomization/Baseline; minimum 4 days).
The Safety analysis set included all patients who received at least one dose of SC study treatment. This analysis set was primary for all safety endpoints, which were analyzed according to treatment received, and was labeled as the ‘Safety population’. In this study, the ITT and Safety analysis sets were identical.

[8] = tanezumab 5-10 mg combined, N = 1008
[9] = 5 mg SC every 8 weeks, listed as Tan
[10] = 10 mg SC every 8 weeks, listed as Tan

T1 sequence (P01138 122-241): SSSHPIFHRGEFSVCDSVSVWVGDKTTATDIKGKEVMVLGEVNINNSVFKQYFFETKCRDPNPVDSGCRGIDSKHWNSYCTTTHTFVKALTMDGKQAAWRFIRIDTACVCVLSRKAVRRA

## tanezumab: humanized IgG2 monoclonal antibody directed against human nerve growth factor (NGF); heavy chain SEQ ID NO: 9 or 11, light chain SEQ ID NO: 10
[1]
  blocking of the activity of NGF: blocks the activity of NGF effectively
[2]
  Primary Osteonecrosis: (0.1%)
  RPOA: (4.8%)
  RPOA Type 1: (3.9%)
  RPOA Type 2: (0.9%)
  Subchondral Insufficiency Fracture: (0.7%)
[3]; 5 mg SC every 8 weeks
  Proportion of Patients with ≥50% Improvement in LBPI at Week 16 (Mixed BOCF/LOCF): (51.1%)
  Proportion with ≥50% Improvement in LBPI at Week 16, Difference vs. celecoxib: 18.5
[3]; 5 mg SC every 8 weeks, ITT
  Change from Baseline to Week 16 in LBPI (Multiple Imputation), LS Mean: −2.91
  Change from Baseline to Week 16 in RMDQ (Multiple Imputation), LS Mean: −3.85
  Change from Baseline to Week 16 in RMDQ, LS Mean Difference vs. celecoxib: −0.01
[3]; 5 mg group relative to both the tanezumab 10 mg and the celecoxib groups
  treatment differences for change from baseline to Week 56 for LBPI and RMDQ: numerically larger
[3]; 10 mg SC every 8 weeks
  Proportion of Patients with ≥50% Improvement in LBPI at Week 16 (Mixed BOCF/LOCF): (35.5%)
  Proportion with ≥50% Improvement in LBPI at Week 16, Difference vs. celecoxib: 2.9
[3]; 10 mg SC every 8 weeks, ITT
  Change from Baseline to Week 16 in LBPI (Multiple Imputation), LS Mean: −2.51
  Change from Baseline to Week 16 in RMDQ (Multiple Imputation), LS Mean: −4.38
[4]; 5 mg
  incidence of adverse events of potential sympathetic dysfunction: 5.9%
  incidence of carpal tunnel syndrome: 1.0%
  incidence of hypoaesthesia: 3.0%
  incidence of discontinuations from treatment due to an adverse event: 6.7%
  incidence of serious adverse events: 2.2%
  overall incidence of adverse events: 58.3%
[4]; 5 mg SC every 8 weeks
  incidence of composite joint safety endpoint: 1.0%
  observation-time adjusted rate of composite joint safety endpoint: 10.0 events/1000 patient-years
  patients adjudicated to normal progression of OA, number: 1 patient
  patients with joint safety event adjudicated to RPOA Type 1: 1.0%
  patients with joint safety event adjudicated to RPOA Type 1, number: 5 patients
[4]; 10 mg
  incidence of adverse events of potential sympathetic dysfunction: 6.4%
  incidence of carpal tunnel syndrome: 1.6%
  incidence of hypoaesthesia: 3.8%
  incidence of discontinuations from treatment due to an adverse event: 7.4%
  incidence of serious adverse events: 4.6%
  overall incidence of adverse events: 63.7%
[4]; 10 mg SC every 8 weeks
  incidence of composite joint safety endpoint: 2.6%
  observation-time adjusted rate of composite joint safety endpoint: 25.7 events/1000 patient-years
  patients adjudicated to normal progression of OA, number: 1 patient
  patients with joint safety event adjudicated to RPOA Type 1: 1.4%
  patients with joint safety event adjudicated to RPOA Type 1, number: 7 patients
  patients with joint safety events adjudicated to RPOA Type 2: 0.4%
  patients with joint safety events adjudicated to RPOA Type 2, number: Two
  patients with subchondral insufficiency fracture: 0.8%
  patients with subchondral insufficiency fracture, number: Four and four
  patients with total joint replacement during study observation period, number: 7 patients
[4]; [8]
  Primary Osteonecrosis, n (%): 0 n (%)
  RPOA Type 1: (1.2%)
  RPOA Type 2: (0.2%)
  Subchondral Insufficiency Fracture: (0.4%)
[4]; tanezumab-treated patients (5 and 10 mg combined), 80-week observation period
  patients with joint safety event requiring adjudication: 2.6%
[5]; 5 mg SC every 8 weeks
  LBPI at week 56, LS mean difference versus tramadol: −0.11
  LBPI change from Baseline to Week 2, Difference vs. plc: −0.37
  LBPI change from Baseline to Week 2, LS Mean: −1.54
  LBPI change from Baseline to Week 16, Difference vs. plc: No statistically significant improvement
  LBPI change from Baseline to Week 16, LS Mean: −2.98
  Proportion of patients with ≥50% improvement in LBPI at Week 16: (43.3) %
  RMDQ at week 56, LS mean difference versus tramadol: −0.44
  RMDQ change from Baseline to Week 16, Difference vs. plc: larger improvement in RMDQ versus placebo treatment
  RMDQ change from Baseline to Week 16, LS Mean: −6.27
  percentage of patients achieving ≥30% improvement in LBPI at week 16: 64.8%
  ≥30% improvement in LBPI at week 16, odds ratio versus placebo: 1.45
  ≥30% improvement in LBPI at week 16, odds ratio versus tramadol: 1.34
  ≥50% improvement in LBPI at Week 16, OR vs. plc: 1.28
[5]; [9]
  LBPI change from Baseline to Week 16, Difference vs. plc: −0.30
  RMDQ change from Baseline to Week 16, Difference vs. plc: −1.32
[5]; 10 mg SC every 8 weeks
  LBPI at week 56, LS mean difference versus tramadol: −0.21
  LBPI change from Baseline to Week 2, Difference vs. plc: onset of effect at Week 2
  LBPI change from Baseline to Week 2, LS Mean: −1.59
  LBPI change from Baseline to Week 16, Difference vs. plc: statistically significant improvement
  LBPI change from Baseline to Week 16, LS Mean: −3.08
  Proportion of patients with ≥50% improvement in LBPI at Week 16: (46.3) %
  RMDQ at week 56, LS mean difference versus tramadol: −0.83
  RMDQ change from Baseline to Week 16, Difference vs. plc: superior improvement in physical function
  RMDQ change from Baseline to Week 16, LS Mean: −6.69
  percentage of patients achieving ≥30% improvement in LBPI at week 16: 65.5%
  ≥30% improvement in LBPI at week 16, odds ratio versus placebo: 1.50
  ≥30% improvement in LBPI at week 16, odds ratio versus tramadol: 1.38
  ≥50% improvement in LBPI at Week 16, OR vs. plc: superior responder rate
[5]; [10]
  LBPI change from Baseline to Week 2, Difference vs. plc: −0.42
  LBPI change from Baseline to Week 16, Difference vs. plc: −0.40
  RMDQ change from Baseline to Week 16, Difference vs. plc: −1.74
  ≥50% improvement in LBPI at Week 16, OR vs. plc: 1.45
[6]
  binding to NGF: high specificity and affinity; also recorded: high affinity and specificity
[7]
  severity of abnormal peripheral sensation adverse events: mild in severity
  severity of potential sympathetic dysfunction events: mild in severity
